Where a name gives a salt, the structure may show the parent alone. Read-outs that look alike come from different tables or passages of the source.
Columns and labels:
AII receptor = experiment: Angiotensin II receptor binding (displacement of 3H-AII); conditions: read-out: Angiotensin II Receptor Binding IC50, rat adrenal cortical microsomes, 2 nM 3H-AII, 1 hour, room temperature
Summary of the method: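 The receptor source was rat adrenal cortical microsomes in Tris buffer, incubated with 2 nM ³H-AII plus or minus test compound for 1 h at room temperature. Bound and free ligand were separated by rapid filtration on glass-fibre filters. Filter-bound ³H-AII was counted by scintillation.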

Renal Hypertensive Rats = experiment: Antihypertensive effects in renal hypertensive rats; format: in vivo; conditions: Rattus norvegicus; for minimal effective dose at 30 mg/kg / minimal effective dose at 3 mg/kg: Table 26; for minimal effective dose at 30 mg/kg / minimal effective dose at 100 mg/kg: oral; for minimal effective dose at 3 mg/kg / minimal effective dose at 10 mg/kg: intravenous; for minimal effective dose at 10 mg/kg / minimal effective dose at 100 mg/kg: Table 25; for minimal effective dose at 10 mg/kg: 10 mg/kg or less; for minimal effective dose at 100 mg/kg: 100 mg/kg or less
Summary of the method: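 Renal hypertensive rats (renin-driven AII elevation) dosed orally at 100 mg/kg and/or i.v. via jugular cannula at 10 mg/kg; a second set used 30 mg/kg oral and 3 mg/kg i.v. Arterial pressure recorded continuously via carotid cannula and compared with pretreatment levels.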

[1] = Table 25, tested as sodium salt

Row | SMILES | IC50 (AII receptor; [1]) [nM] | minimal effective dose at 10 mg/kg (Renal Hypertensive Rats; tested as sodium salt) [mg/kg] | minimal effective dose at 100 mg/kg (Renal Hypertensive Rats; tested as sodium salt) [mg/kg] | other results
1 | CCCc1nc(C(F)(F)C(F)(F)F)c(C=O)n1Cc1ccc(-c2ccccc2C(=O)O)cc1 [Example 140B] |  |  |  | IC50 (AII receptor; Table 26): 160 nM; minimal effective dose at 30 mg/kg (Renal Hypertensive Rats): < 30 mg/kg
2 | CCCc1nc(C(F)(F)F)c(C=O)n1Cc1ccc(-c2ccccc2-c2nnn[nH]2)cc1 [Example 140C] |  |  |  | IC50 (AII receptor; Table 26): 20 nM; minimal effective dose at 3 mg/kg (Renal Hypertensive Rats): < 3 mg/kg; minimal effective dose at 30 mg/kg (Renal Hypertensive Rats): < 30 mg/kg
3 | CCCCc1nc(Br)c(C=O)n1Cc1ccc(-c2ccccc2C(=O)O)cc1 [Example 140D] |  |  |  | IC50 (AII receptor; Table 26): 400 nM; minimal effective dose at 3 mg/kg (Renal Hypertensive Rats): < 3 mg/kg; minimal effective dose at 30 mg/kg (Renal Hypertensive Rats): < 30 mg/kg
4 | CCCCc1nc(Br)c(C=O)n1Cc1ccc(-c2ccccc2-c2nnn[nH]2)cc1 [Example 140E] |  |  |  | IC50 (AII receptor; Table 26): 33 nM; minimal effective dose at 3 mg/kg (Renal Hypertensive Rats): < 3 mg/kg; minimal effective dose at 30 mg/kg (Renal Hypertensive Rats): < 30 mg/kg
5 | CCC=Cc1nc(C(F)(F)F)c(C=O)n1Cc1ccc(-c2ccccc2C(=O)O)cc1 [Example 140F] |  |  |  | IC50 (AII receptor; Table 26): 200 nM; minimal effective dose at 3 mg/kg (Renal Hypertensive Rats): < 3 mg/kg; minimal effective dose at 30 mg/kg (Renal Hypertensive Rats): < 30 mg/kg
6 | CCCCc1nc(C(F)(F)F)c(C(=O)OC)n1Cc1ccc(-c2ccccc2-c2nnn[nH]2)cc1 [Example 140H] |  |  |  | IC50 (AII receptor; Table 26): 76 nM; minimal effective dose at 3 mg/kg (Renal Hypertensive Rats): < 3 mg/kg; minimal effective dose at 30 mg/kg (Renal Hypertensive Rats): < 30 mg/kg
7 | CCCCc1nc(C(F)(F)F)c(C(=O)OCC)n1Cc1ccc(-c2ccccc2-c2nnn[nH]2)cc1 [Example 140I] |  |  |  | IC50 (AII receptor; Table 25): 52 nM; minimal effective dose at 10 mg/kg (Renal Hypertensive Rats): < 10 mg/kg; minimal effective dose at 100 mg/kg (Renal Hypertensive Rats): < 100 mg/kg
8 | CCCCc1nc(C(F)(F)F)c(C(N)=O)n1Cc1ccc(-c2ccccc2-c2nnn[nH]2)cc1 [Example 140J] |  |  |  | IC50 (AII receptor; Table 26): 27 nM; minimal effective dose at 3 mg/kg (Renal Hypertensive Rats): < 3 mg/kg; minimal effective dose at 30 mg/kg (Renal Hypertensive Rats): < 30 mg/kg
9 | CCCCc1nc(I)c(C=O)n1Cc1ccc(-c2ccccc2-c2nnn[nH]2)cc1 [Example 140K] |  |  |  | IC50 (AII receptor; Table 26): 38 nM; minimal effective dose at 3 mg/kg (Renal Hypertensive Rats): < 3 mg/kg; minimal effective dose at 30 mg/kg (Renal Hypertensive Rats): < 30 mg/kg
10 | CCCCc1nc(Cl)c(C=O)n1Cc1cccc(-c2ccccc2-c2nnn[nH]2)c1 [Example 140L] |  |  |  | IC50 (AII receptor; Table 26): 5700 nM; minimal effective dose at 3 mg/kg (Renal Hypertensive Rats): < 3 mg/kg; minimal effective dose at 30 mg/kg (Renal Hypertensive Rats): < 30 mg/kg
11 | CCCCc1nc(Cl)c(CNC(=O)OCC)n1Cc1ccc(-c2ccccc2C(=O)O)cc1 [Example 148, 2-Butyl-1-[(2'-carboxybiphenyl-4-yl)methyl]-4-chloro-5-(ethoxycarbonylaminomethyl)imidazole] | 200 | < 10 | < 100 | 
12 | CCCCc1nc(Cl)c(CNC(=O)Oc2ccccc2)n1Cc1ccc(-c2ccccc2C(=O)O)cc1 [Example 149] | 450 | < 10 | < 100 | 
13 | CCCCc1nc(Cl)c(CNC(=O)OC)n1Cc1ccc(-c2ccccc2C(=O)O)cc1 [Example 150] | 200 | < 10 | < 100 | 
14 | CCCCc1nc(Cl)c(CNC(=O)OCCC)n1Cc1ccc(-c2ccccc2C(=O)O)cc1 [Example 151] | 560 | < 10 | < 100 | 
15 | CCCCc1nc(Cl)c(CNC(=O)OC(C)C)n1Cc1ccc(-c2ccccc2C(=O)O)cc1 [Example 152] | 250 | < 10 | < 100 | 
16 | CCCCOC(=O)NCc1c(Cl)nc(CCCC)n1Cc1ccc(-c2ccccc2C(=O)O)cc1 [Example 153] | 200 | < 10 | < 100 | 

Row | SMILES | IC50 (AII receptor; [1]) [nM] | minimal effective dose at 10 mg/kg (Renal Hypertensive Rats; tested as sodium salt) [mg/kg] | minimal effective dose at 100 mg/kg (Renal Hypertensive Rats; tested as sodium salt) [mg/kg] | other results
17 | CCCCc1nc(Cl)c(CNC(=O)OC23CC4CC(CC(C4)C2)C3)n1Cc1ccc(-c2ccccc2C(=O)O)cc1 [Example 154] | 600 | < 10 | < 100 | 
18 | CCCCc1nc(Cl)c(CNC(=O)OC)n1Cc1ccc(-c2ccccc2-c2nnn[nH]2)cc1 [Example 156] |  |  |  | IC50 (AII receptor; Table 25): 60 nM; minimal effective dose at 10 mg/kg (Renal Hypertensive Rats): < 10 mg/kg
19 | CCCCc1nc(CNC(=O)OC)c(Cl)n1Cc1ccc(-c2ccccc2C(=O)O)cc1 [Example 160] | 120 | < 10 | < 100 | 
20 | CCCCc1nc(CNC(=O)OCCC)c(Cl)n1Cc1ccc(-c2ccccc2C(=O)O)cc1 [Example 162] | 140 | < 10 | < 100 | 
21 | CCCCc1nc(Cl)c(CNC(=O)Nc2cccc3ccccc23)n1Cc1ccc(-c2ccccc2C(=O)O)cc1 [Example 165, 2-n-Butyl-1-[(2'-carboxybiphenyl-4-yl)methyl]-4-chloro-5-(1-naphthylaminocarbonylaminomethyl)-imidazole] | 3000 | < 10 | > 100 | 
22 | CCCCc1nc(Cl)c(CNC(=O)NC)n1Cc1ccc(-c2ccccc2C(=O)O)cc1 [Example 166] | 240 | < 10 | > 100 | 
23 | CCCCc1nc(Cl)c(CNC(=O)NC(C)c2cccc3ccccc23)n1Cc1ccc(-c2ccccc2C(=O)O)cc1 (stereo not drawn) [Example 171] | 600 | < 10 | > 100 | 
24 | CCCCc1nc(Cl)c(COC)n1Cc1ccc(-c2ccccc2Cc2nn[nH]n2)cc1 [Example 174, 2-n-Butyl-4-chloro-5-methoxymethyl-1-[(2'-((tetrazol-5-yl)methyl)biphenyl-4-yl)methyl]imidazole] | 300 | < 10 | > 100 | 
25 | CCCCc1nc(Cl)c(CO)n1Cc1ccc(-c2ccccc2CC(=O)O)cc1 [Example 175, 2-n-Butyl-1-[(2'-(carboxymethyl)biphenyl-4-yl)methyl]-4-chloro-5-(hydroxymethyl)-imidazole.dicyclohexylamine salt] | 1500 | < 10 | > 100 | 
26 | CCCCc1nc(Cl)c(COC)n1Cc1ccc(-c2ccccc2C(=O)NNS(=O)(=O)C(F)(F)F)cc1 [Example 176, 2-n-Butyl-4-chloro-5-methoxymethyl-1-[4-(2-(trifluoromethylsulfonylhydrazido)biphenyl-4-yl)methyl]imidazole] |  |  |  | IC50 (AII receptor; Table 25): 200 nM; minimal effective dose at 10 mg/kg (Renal Hypertensive Rats): < 10 mg/kg; minimal effective dose at 100 mg/kg (Renal Hypertensive Rats): > 100 mg/kg
27 | CCCCc1nc(Cl)c(CO)n1Cc1ccc(-c2ccccc2-c2c[nH]nn2)cc1 [Example 177] |  |  |  | IC50 (AII receptor; Table 25): 9600 nM; minimal effective dose at 10 mg/kg (Renal Hypertensive Rats): < 10 mg/kg; minimal effective dose at 100 mg/kg (Renal Hypertensive Rats): > 100 mg/kg
28 | CCCCc1nc(Cl)c(CO)n1Cc1ccc(-c2ccccc2C(=O)NOCc2ccccc2)cc1 [Example 181] |  |  |  | IC50 (AII receptor; Table 25): 4900 nM; minimal effective dose at 10 mg/kg (Renal Hypertensive Rats): < 10 mg/kg; minimal effective dose at 100 mg/kg (Renal Hypertensive Rats): > 100 mg/kg
29 | CCCCc1nc(Cl)c(CO)n1Cc1ccc(-c2ccccc2C(=O)NO)cc1 [Example 182] |  |  |  | IC50 (AII receptor; Table 25): 4100 nM; minimal effective dose at 10 mg/kg (Renal Hypertensive Rats): < 10 mg/kg; minimal effective dose at 100 mg/kg (Renal Hypertensive Rats): > 100 mg/kg
30 | CCCCc1nc(Cl)c(CC(=O)O)n1Cc1ccc(OCc2ccccc2C(=O)O)cc1 [Example 192, 1-[4-(2-Carboxybenzyloxy)benzyl]-2-butyl-4-chloroimidazole-5-acetic acid] |  |  |  | IC50 (AII receptor; Table 25): 2300 nM; minimal effective dose at 100 mg/kg (Renal Hypertensive Rats): > 100 mg/kg
31 | CCCCc1nc(Cl)c(Cn2cncn2)n1Cc1ccc(C(=O)c2ccccc2C(=O)O)cc1 [Example 204, 2-Butyl-1-[4-(2-Carboxybenzoyl)benzyl]-4-chloro-5-((1,2,4-triazol-1-yl)methyl)imidazole] | 1900 | < 10 | > 100 | 

From patent US5138069A (E. I. Du Pont de Nemours and Company, priority 1988, dated 1992)
